From publication PMC11091220, “Metabolism-driven in vitro/in vivo disconnect of an oral ERɑ VHL-PROTAC” (Communications Biology, 2024)
Values joined by “and” are separate entries in the source; they are usually repeats but may differ in a detail not shown here. Equal entries are not always repeated. Where two headings read alike, the source gives them in different places.

How the values were obtained:
PGR mRNA = assay: PD study in CTC174 PDX model, tumour PGR mRNA by qPCR; assay type: in vivo, mouse; settings: 100 mg/kg BID, 4 days, individual animals; listed as AZ'6421
[1] = molecular target: ESR1-Nanoluciferase fusion protein (Homo sapiens, UniProt P03372); assay: ERα nanoluciferase degradation assay; assay type: cell-based
Sequence of ESR1-Nanoluciferase fusion protein (P40337 whole entry, the tested form may be a part): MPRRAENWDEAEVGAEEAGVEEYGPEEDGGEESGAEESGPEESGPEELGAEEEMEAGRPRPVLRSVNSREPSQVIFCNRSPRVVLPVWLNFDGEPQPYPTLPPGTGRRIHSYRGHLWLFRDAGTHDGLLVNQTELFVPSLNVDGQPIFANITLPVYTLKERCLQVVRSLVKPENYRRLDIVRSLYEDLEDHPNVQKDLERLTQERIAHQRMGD
Sequence of ESR1-Nanoluciferase fusion protein (P03372 whole entry, the tested form may be a part): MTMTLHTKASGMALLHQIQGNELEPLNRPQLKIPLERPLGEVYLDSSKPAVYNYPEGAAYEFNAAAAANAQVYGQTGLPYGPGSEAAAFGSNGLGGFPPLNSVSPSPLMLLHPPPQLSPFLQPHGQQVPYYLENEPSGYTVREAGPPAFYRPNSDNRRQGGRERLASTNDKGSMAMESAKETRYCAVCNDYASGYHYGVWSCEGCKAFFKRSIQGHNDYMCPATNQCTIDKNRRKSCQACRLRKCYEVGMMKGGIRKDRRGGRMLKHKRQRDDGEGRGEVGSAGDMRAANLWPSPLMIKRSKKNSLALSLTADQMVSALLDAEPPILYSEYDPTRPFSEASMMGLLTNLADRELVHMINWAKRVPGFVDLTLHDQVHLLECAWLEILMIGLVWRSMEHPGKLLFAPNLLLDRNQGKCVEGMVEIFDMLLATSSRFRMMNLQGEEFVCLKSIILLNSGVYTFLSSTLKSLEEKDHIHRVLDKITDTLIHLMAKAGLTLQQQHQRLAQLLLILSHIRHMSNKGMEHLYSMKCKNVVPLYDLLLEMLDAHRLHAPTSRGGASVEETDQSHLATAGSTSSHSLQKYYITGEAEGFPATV
Description: MCF7 pTRIPZ Cas9 cells stably transfected with pSMPNeo dual Luc ESR1 vector (containing ESR1-Nanoluciferase fusion protein/reporter and a Firefly luciferase reporter) were seeded into T175 flasks and incubated for 48 hours in RPMI 1640 media containing 10% (v/v) foetal bovine serum (FBS) and 2 mM L-Glutamine. The cells were then seeded at 20000 cells/well into 384-well plates containing compounds at concentrations ranging from 3.125 µM to 15.9 pM. Following 24 hours incubation (37 °C, 5% CO2), media was removed and ONE-Glow^TM EX luciferase reagent (Promega) was added to each well. Firefly luminescence was measured after 5 minutes using an Envision (PerkinElmer). NanoDLR^TM Stop and Glo® reagent (Promega) was added and incubated for ten minutes (room temperature), before measuring Nano luminescence using the Envision. Wells containing vehicle or 3 µM Fulvestrant were used to normalise data, and degradation of ESR1-Nanoluciferase was analysed using Genedata Screener.

[2] = Mouse pharmacokinetics, i.v./oral and enabling formulations; assay type: in vivo
Description: (*) AUC0-6 (data BLQ beyond 6 hours). TEXT PRINTED IN THE PICTURE: (e) Formulation SF: Dose normalised Cmax (μM): 0.009 (Oral dose (mg/kg): 1); Dose normalised AUC0-12 (μM.h): 0.02* (Oral dose (mg/kg): 1) | (e) Formulation EF1: Dose normalised Cmax (μM): 0.023 (Oral dose (mg/kg): 100); Dose normalised AUC0-12 (μM.h): 0.22 (Oral dose (mg/kg): 100) | (e) Formulation EF2: Dose normalised Cmax (μM): 0.002 (Oral dose (mg/kg): 100); Dose normalised AUC0-12 (μM.h): 0.009 (Oral dose (mg/kg): 100) | (e) Formulation EF3: Dose normalised Cmax (μM): 0.045 (Oral dose (mg/kg): 100); Dose normalised AUC0-12 (μM.h): 0.12 (Oral dose (mg/kg): 100); Dose normalised Cmax (μM): 0.016 (Oral dose (mg/kg): 30); Dose normalised AUC0-12 (μM.h): 0.06* (Oral dose (mg/kg): 30); Dose normalised Cmax (μM): 0.017 (Oral dose (mg/kg): 10); Dose normalised AUC0-12 (μM.h): 0.06* (Oral dose (mg/kg): 10) | (e) Formulation EF4: Dose normalised Cmax (μM): 0.022 (Oral dose (mg/kg): 100); Dose normalised AUC0-12 (μM.h): 0.10 (Oral dose (mg/kg): 100) | (e) Formulation EF5: Dose normalised Cmax (μM): 0.050 (Oral dose (mg/kg): 100); Dose normalised AUC0-12 (μM.h): 0.25 (Oral dose (mg/kg): 100); Dose normalised Cmax (μM): 0.013 (Oral dose (mg/kg): 30); Dose normalised AUC0-12 (μM.h): 0.045* (Oral dose (mg/kg): 30); Dose normalised Cmax (μM): 0.023 (Oral dose (mg/kg): 10); Dose normalised AUC0-12 (μM.h): 0.076* (Oral dose (mg/kg): 10)
Each plasma sample ([…]) was prepared using an appropriate dilution factor, and compared against an 11-point standard calibration curve (1-10000 nM) prepared in DMSO and spiked into blank plasma. Acetonitrile ([…]) was added with the internal standard, followed by centrifugation at 3000 rpm for 10 minutes. The supernatant ([…]) was then diluted in […] acetonitrile:water (75:25) and analyzed via UPLC-MS/MS.
The MS/MS instrument used was either a Waters XEVO® TQ-S, Waters XEVO® TQ-D, or API 4000 (AB Sciex). The ultra-mass spectrometer used for sample analysis was completed in the MRM mode (MS/MS). Reverse-phase HPLC with a C18 column was used to separate the analytes. A mobile phase of 99% water/0.1% formic acid (solvent A) and a solvent phase of 99% acetonitrile/0.1% formic acid (solvent B) was used. A generic LC gradient elution was used at a flow rate of 0.5 mL/min with 95% solvent A and 5% solvent B for 0.3 min after which the concentration of solvent B was increased to 95% over 0.9 min before restoring it back to 5% for the remaining 0.5 min. Mass spectrometer methods were optimised for each compound.

Cc1ncsc1-c1ccc(CNC(=O)[C@@H]2C[C@@H](O)CN2C(=O)[C@@H](NC(=O)COCCCOCCCOc2cc(F)c([C@@H]3c4[nH]c5ccccc5c4C[C@@H](C)N3CC(C)(C)F)c(F)c2)C(C)(C)C)cc1 [Compound 5]
PGR mRNA expression in tumour (% of vehicle) (PGR mRNA): 12.5811% and 15.4178% and 10.0087% and 25.9295% and 45.882%
DC50 ([1]; 24 hours, read-out: ERα nano-luciferase degradation DC50): 15 ± 9 nM
IC50 ([1]; Table 1 source data, mean, read-out: ERa nanocluciferase degradation DC50 (nM), Mean IC50): 15 nM
Dmax ([1]; read-out: ERα nano-luciferase Dmax): 121 ± 15%
Plasma conc (total) ([2]; IV 0.5 mg/kg, mouse, 0.03 h, listed as AZ'6421, 0.5 mg/kg): 1770 nM
Plasma conc (total) ([2]; IV 0.5 mg/kg, 0.17 h, listed as AZ'6421, 0.5 mg/kg): 219 nM
Plasma conc (total) ([2]; IV 0.5 mg/kg, 0.5 h, listed as AZ'6421, 0.5 mg/kg): 58.2 nM
Plasma conc (total) ([2]; IV 0.5 mg/kg, 1 h, listed as AZ'6421, 0.5 mg/kg): 27.9 nM
Plasma conc (total) ([2]; IV 0.5 mg/kg, 2 h, listed as AZ'6421, 0.5 mg/kg): 15.2 nM
Plasma conc (total) ([2]; IV 0.5 mg/kg, 4 h, listed as AZ'6421, 0.5 mg/kg): 6.74 nM
Plasma conc (total) ([2]; IV 0.5 mg/kg, 6 h, listed as AZ'6421, 0.5 mg/kg): 4.38 nM
Plasma conc (total) ([2]; IV 0.5 mg/kg, 8 h, listed as AZ'6421, 0.5 mg/kg): 2.82 nM
Plasma conc (total) ([2]; Oral 1 mg/kg in SF, mouse, 0.5 h, listed as AZ'6421, 1 mg/kg): 4.03 nM
Plasma conc (total) ([2]; Oral 1 mg/kg in SF, 1 h, listed as AZ'6421, 1 mg/kg): 6.69 nM
concentration at 0.03 h ([2]; mouse, plasma, iv, 0.5 mg/kg, IV 0.5 mg/kg, mouse, 0.03 h, read-out: Plasma conc (total)): 1990 nM
concentration at 0.17 h ([2]; mouse, plasma, iv, 0.5 mg/kg, IV 0.5 mg/kg, 0.17 h, read-out: Plasma conc (total)): 261 nM
concentration at 0.5 h ([2]; mouse, plasma, iv, 0.5 mg/kg, IV 0.5 mg/kg, 0.5 h, read-out: Plasma conc (total)): 89 nM
concentration at 1 h ([2]; mouse, plasma, iv, 0.5 mg/kg, IV 0.5 mg/kg, 1 h, read-out: Plasma conc (total)): 41.9 nM
concentration at 2 h ([2]; mouse, plasma, iv, 0.5 mg/kg, IV 0.5 mg/kg, 2 h, read-out: Plasma conc (total)): 16.9 nM
concentration at 4 h ([2]; mouse, plasma, iv, 0.5 mg/kg, IV 0.5 mg/kg, 4 h, read-out: Plasma conc (total)): 7.09 nM
concentration at 6 h ([2]; mouse, plasma, iv, 0.5 mg/kg, IV 0.5 mg/kg, 6 h, read-out: Plasma conc (total)): 3.27 nM
concentration at 8 h ([2]; mouse, plasma, iv, 0.5 mg/kg, IV 0.5 mg/kg, 8 h, read-out: Plasma conc (total)): 2.02 nM
clearance ([2]; mouse, plasma, iv, 0.5 mg/kg i.v., read-out: mouse in vivo clearance): 22 mL/min/kg
concentration at 0.5 h ([2]; mouse, plasma, po, 1 mg/kg, Oral 1 mg/kg in SF, mouse, 0.5 h, read-out: Plasma conc (total)): 2.24 nM
concentration at 1 h ([2]; mouse, plasma, po, 1 mg/kg, Oral 1 mg/kg in SF, 1 h, read-out: Plasma conc (total)): 9.06 nM
concentration at 4 h ([2]; mouse, plasma, po, 1 mg/kg, Oral 1 mg/kg in SF, 4 h, read-out: Plasma conc (total)): 2.98 nM
AUC ([2]; plasma, po, 1 mg/kg p.o., SF, mouse, read-out: oral exposure (AUC)): 0.02 µM·h
